The values that follow come from US9156872B2, “2′-azido substituted nucleoside derivatives and methods of use thereof for the treatment of viral diseases” (priority 2011, dated 2015).

SMILES strings stand for the structures. pEC50: −log10 of the molar value. Like-named read-outs stand apart in the source and are kept apart here.

The test system of this assay is HCV replicon cells. Kind of assay: Cell-based HCV replicon assay (replicon RNA by Taqman real time PCR). Particulars: read-out: 1b EC50.
The mark [1] stands for this setting: HCV replicon 1b, cells harvested on day 3.

For `CCOc1nc(N)nc2c1ncn2[C@@H]1O[C@@H]2COP(=O)(OC3CCC3)O[C@H]2[C@@]1(C)N=[N+]=[N-]` (single isomer, unassigned) [Compound 101], under setting [1], the negative-log EC50 (pEC50) is 7.00. With `COc1nc(N)nc2c1ncn2[C@@H]1O[C@@H]2COP(=O)(OC3CCC3)O[C@H]2[C@@]1(C)N=[N+]=[N-]` (single isomer, unassigned) [Compound 102], the pEC50 (Hepatitis C virus, 72 h, HCV replicon 1b, cells harvested on day 3) is 4.96.

Turning to `COc1nc(N)nc2c1ncn2[C@@H]1O[C@@H]2COP(=O)(OC3CCC3)O[C@H]2[C@@]1(C)N=[N+]=[N-]` (single isomer, unassigned) [Compound 104], the negative-log EC50 (pEC50) under setting [1] is 4.96. Regarding `CCOc1nc(N)nc2c1ncn2[C@@H]1O[C@@H]2COP(=O)(OC3CCC3)O[C@H]2[C@@]1(C)N=[N+]=[N-]` (single isomer, unassigned) [Compound 107], the pEC50 under setting [1] was 4.73. On to `CCOc1nc(N)nc2c1ncn2[C@@H]1O[C@@H]2COP(=O)(OC3CCC3)O[C@H]2[C@@]1(C)N=[N+]=[N-]` (single isomer, unassigned) [Compound 108], for which the negative logarithm of the EC50 (pEC50) under setting [1] is 4.62. Turning to `CCOc1nc(N)nc2c1ncn2[C@@H]1O[C@H](COP(=O)(N[C@@H](C)C(=O)OC)Oc2ccccc2)[C@@H](O)[C@@]1(C)N=[N+]=[N-]` (single isomer, unassigned) [Compound 142], the negative logarithm of the EC50 (pEC50) (Hepatitis C virus, 72 h) was 6.30. Turning to `CCOc1nc(N)nc2c1ncn2[C@@H]1O[C@H](COP(=O)(N[C@@H](C)C(=O)OC)Oc2ccccc2)[C@@H](O)[C@@]1(C)N=[N+]=[N-]` (single isomer, unassigned) [Compound 143], the pEC50 was 6.22. Regarding `CCCOC(=O)[C@H](C)NP(=O)(OC[C@H]1O[C@@H](n2ccc(=O)[nH]c2=O)[C@](C)(N=[N+]=[N-])[C@@H]1O)Oc1ccccc1` (single isomer, unassigned) [Compound 147], the negative logarithm of the EC50 (pEC50) (Hepatitis C virus, 72 h) was 5.25. As for `CCOC(=O)[C@H](C)NP(=O)(OC[C@H]1O[C@@H](n2ccc(=O)[nH]c2=O)[C@](C)(N=[N+]=[N-])[C@@H]1O)Oc1ccccc1` (single isomer, unassigned) [Compound 151], the pEC50 was 5.29.

As for `CCOC(=O)[C@H](C)NP(=O)(OC[C@H]1O[C@@H](n2ccc(=O)[nH]c2=O)[C@](C)(N=[N+]=[N-])[C@@H]1O)Oc1ccccc1` (single isomer, unassigned) [Compound 152], the pEC50 is 6.30.

Consider `C[C@H](NP(=O)(OC[C@H]1O[C@@H](n2ccc(=O)[nH]c2=O)[C@](C)(N=[N+]=[N-])[C@@H]1O)Oc1ccccc1)C(=O)OCC(C)(C)C` (single isomer, unassigned) [Compound 153], for which the pEC50 is 4.72. For `C[C@H](NP(=O)(OC[C@H]1O[C@@H](n2ccc(=O)[nH]c2=O)[C@](C)(N=[N+]=[N-])[C@@H]1O)Oc1ccccc1)C(=O)OCC(C)(C)C` (single isomer, unassigned) [Compound 154], the pEC50 is 6.15. Consider `CCCCOC(=O)[C@H](C)NP(=O)(OC[C@H]1O[C@@H](n2ccc(=O)[nH]c2=O)[C@](C)(N=[N+]=[N-])[C@@H]1O)Oc1cccc2ccccc12` (single isomer, unassigned) [Compound 155], for which the pEC50 (Hepatitis C virus, 72 h) is 5.66. Turning to `CCCCOC(=O)[C@H](C)NP(=O)(OC[C@H]1O[C@@H](n2ccc(=O)[nH]c2=O)[C@](C)(N=[N+]=[N-])[C@@H]1O)Oc1cccc2ccccc12` (single isomer, unassigned) [Compound 156], the negative-log EC50 (pEC50) is 5.82. With `CC(C)OC(=O)[C@H](C)NP(=O)(OC[C@H]1O[C@@H](n2ccc(=O)[nH]c2=O)[C@](C)(N=[N+]=[N-])[C@@H]1O)Oc1ccccc1` (single isomer, unassigned) [Compound 157], for the setting “Hepatitis C virus, 72 h”, the pEC50 was 4.31. For `COC(=O)[C@H](C)NP(=O)(OC[C@H]1O[C@@H](n2ccc(=O)[nH]c2=O)[C@](C)(N=[N+]=[N-])[C@@H]1O)Oc1ccccc1` (single isomer, unassigned) [Compound 158], the pEC50 (Hepatitis C virus, 72 h) is 5.05.

On to `COC(=O)[C@H](C)NP(=O)(OC[C@H]1O[C@@H](n2ccc(=O)[nH]c2=O)[C@](C)(N=[N+]=[N-])[C@@H]1O)Oc1ccccc1` (single isomer, unassigned) [Compound 159], for which the pEC50 was 5.21. Take `CCOc1nc(N)nc2c1ncn2[C@@H]1O[C@H](COP(=O)(N[C@@H](C)C(=O)OCC(C)(C)C)Oc2ccccc2)[C@@H](O)[C@@]1(C)N=[N+]=[N-]` (single isomer, unassigned) [Compound 160]: the pEC50 is 5.17.

In the case of `CCOc1nc(N)nc2c1ncn2[C@@H]1O[C@H](COP(=O)(N[C@@H](C)C(=O)OCC(C)(C)C)Oc2ccccc2)[C@@H](O)[C@@]1(C)N=[N+]=[N-]` (single isomer, unassigned) [Compound 161], the negative logarithm of the EC50 (pEC50) was 5.77.

Consider `CCCOC(=O)[C@H](C)NP(=O)(OC[C@H]1O[C@@H](n2cnc3c(OCC)nc(N)nc32)[C@](C)(N=[N+]=[N-])[C@@H]1O)Oc1ccccc1` (single isomer, unassigned) [Compound 163], for which, under “Hepatitis C virus, 72 h”, the negative-log EC50 (pEC50) is 5.96. As for `CCCOC(=O)[C@H](C)NP(=O)(OC[C@H]1O[C@@H](n2cnc3c(OCC)nc(N)nc32)[C@](C)(N=[N+]=[N-])[C@@H]1O)Oc1ccccc1` (single isomer, unassigned) [Compound 164], the pEC50 is 6.00. On to `CCOc1nc(N)nc2c1ncn2[C@@H]1O[C@H](COP(=O)(N[C@@H](C)C(=O)OC(C)C)Oc2ccccc2)[C@@H](O)[C@@]1(C)N=[N+]=[N-]` (single isomer, unassigned) [Compound 165], for which the negative-log EC50 (pEC50) was 5.21. The same measure, in the same setting: the same measure for `CCOc1nc(N)nc2c1ncn2[C@@H]1O[C@H](COP(=O)(N[C@@H](C)C(=O)OC(C)C)Oc2ccccc2)[C@@H](O)[C@@]1(C)N=[N+]=[N-]` (single isomer, unassigned) [Compound 166]: 6.10. On to `CCCCOC(=O)[C@H](C)NP(=O)(OC[C@H]1O[C@@H](n2cnc3c(OCC)nc(N)nc32)[C@](C)(N=[N+]=[N-])[C@@H]1O)Oc1ccccc1` (single isomer, unassigned) [Compound 167], for which the pEC50 (Hepatitis C virus, 72 h) is 5.92. On to `CCCCOC(=O)[C@H](C)NP(=O)(OC[C@H]1O[C@@H](n2cnc3c(OCC)nc(N)nc32)[C@](C)(N=[N+]=[N-])[C@@H]1O)Oc1ccccc1` (single isomer, unassigned) [Compound 168], for which the pEC50 was 5.82. In the case of `CCCCOC(=O)[C@H](C)NP(=O)(OC[C@H]1O[C@@H](n2ccc(=O)[nH]c2=O)[C@](C)(N=[N+]=[N-])[C@@H]1O)Oc1ccccc1` (single isomer, unassigned) [Compound 169], the pEC50 is 5.46. `CCCCOC(=O)[C@H](C)NP(=O)(OC[C@H]1O[C@@H](n2ccc(=O)[nH]c2=O)[C@](C)(N=[N+]=[N-])[C@@H]1O)Oc1ccccc1` (single isomer, unassigned) [Compound 170]: the pEC50 is 5.82. Consider `CCCCOC(=O)[C@H](C)NP(=O)(OC[C@H]1O[C@@H](n2cnc3c(OCC)nc(N)nc32)[C@](C)(N=[N+]=[N-])[C@@H]1O)Oc1cccc2ccccc12` (single isomer, unassigned) [Compound 171], for which the pEC50 (Hepatitis C virus, 72 h) is 6.30. In the case of `CCCCOC(=O)[C@H](C)NP(=O)(OC[C@H]1O[C@@H](n2cnc3c(OCC)nc(N)nc32)[C@](C)(N=[N+]=[N-])[C@@H]1O)Oc1cccc2ccccc12` (single isomer, unassigned) [Compound 172], the negative-log EC50 (pEC50) was 6.40. Regarding `CCOc1nc(N)nc2c1ncn2[C@@H]1O[C@H](COP(=O)(N[C@@H](C)C(=O)OC)Oc2ccc(F)cc2)[C@@H](O)[C@@]1(C)N=[N+]=[N-]` (single isomer, unassigned) [Compound 173], the pEC50 (Hepatitis C virus, 72 h) is 6.22.

On to `CCOc1nc(N)nc2c1ncn2[C@@H]1O[C@H](COP(=O)(N[C@@H](C)C(=O)OC)Oc2ccc(F)cc2)[C@@H](O)[C@@]1(C)N=[N+]=[N-]` (single isomer, unassigned) [Compound 174], for which the pEC50 is 6.30.

As for `CCOC(=O)[C@H](C)NP(=O)(OC[C@H]1O[C@@H](n2cnc3c(OCC)nc(N)nc32)[C@](C)(N=[N+]=[N-])[C@@H]1O)Oc1ccc(F)cc1` (single isomer, unassigned) [Compound 175], the pEC50 (Hepatitis C virus, 72 h) was 6.40.

Regarding `CCOC(=O)[C@H](C)NP(=O)(OC[C@H]1O[C@@H](n2cnc3c(OCC)nc(N)nc32)[C@](C)(N=[N+]=[N-])[C@@H]1O)Oc1ccc(F)cc1` (single isomer, unassigned) [Compound 176], the negative-log EC50 (pEC50) was 6.52.

In the case of `C[C@H](NP(=O)(OC[C@H]1O[C@@H](n2ccc(N)nc2=O)[C@](C)(N=[N+]=[N-])[C@@H]1O)Oc1ccccc1Cl)C(=O)OCC(C)(C)C` (single isomer, unassigned) [Compound 181], the negative logarithm of the EC50 (pEC50) was 5.42. For `C[C@H](NP(=O)(OC[C@H]1O[C@@H](n2ccc(N)nc2=O)[C@](C)(N=[N+]=[N-])[C@@H]1O)Oc1ccccc1Cl)C(=O)OCC(C)(C)C` (single isomer, unassigned) [Compound 182], the pEC50 is 4.92. With `COC(=O)[C@H](C)NP(=O)(OC[C@H]1O[C@@H](n2ccc(N)nc2=O)[C@](C)(N=[N+]=[N-])[C@@H]1O)Oc1ccc(Cl)cc1` (single isomer, unassigned) [Compound 185], where the note is “Hepatitis C virus, 72 h”, the negative logarithm of the EC50 (pEC50) is 5.54. Turning to `COC(=O)[C@H](C)NP(=O)(OC[C@H]1O[C@@H](n2ccc(N)nc2=O)[C@](C)(N=[N+]=[N-])[C@@H]1O)Oc1ccc(Cl)cc1` (single isomer, unassigned) [Compound 186], the pEC50 was 5.70.

As to `COC(=O)[C@H](C)NP(=O)(OC[C@H]1O[C@@H](n2ccc(N)nc2=O)[C@](C)(N=[N+]=[N-])[C@@H]1O)Oc1ccc(F)cc1` (single isomer, unassigned) [Compound 187], the negative logarithm of the EC50 (pEC50) is 4.66. As for `COC(=O)[C@H](C)NP(=O)(OC[C@H]1O[C@@H](n2ccc(N)nc2=O)[C@](C)(N=[N+]=[N-])[C@@H]1O)Oc1ccc(F)cc1` (single isomer, unassigned) [Compound 188], the pEC50 is 5.25. For `CCOC(=O)[C@H](C)NP(=O)(OC[C@H]1O[C@@H](n2ccc(N)nc2=O)[C@](C)(N=[N+]=[N-])[C@@H]1O)Oc1ccc(Cl)cc1` (single isomer, unassigned) [Compound 189], the pEC50 is 4.66.

On to `CCOC(=O)[C@H](C)NP(=O)(OC[C@H]1O[C@@H](n2ccc(N)nc2=O)[C@](C)(N=[N+]=[N-])[C@@H]1O)Oc1ccc(Cl)cc1` (single isomer, unassigned) [Compound 190], for which the pEC50 is 5.25.
